Test results published in patent US11149029B2, “Salts of IJAK inhibitors and methods of using the same” (AstraZeneca AB, priority 2018, dated 2021).
Where “and” joins values, the source holds several entries; their conditions need not be identical. Equal values may be shown once. Where a name gives a salt, the structure may show the parent alone.

Key:
[1] = Weight loss on heating from room temperature to 120° C.; assay type: physicochemical; conditions: heating from room temperature (RT) to 120° C.
Description: From the crystal structure (performed using single crystal X-ray diffraction, SXRD) of the free base compound of Formula (Ia), it was determined that the form was a non-stoichiometric hydrate.
Accordingly, a salt screen was performed and out of 20 counter ions tested, three salts (phosphoric, sulfuric and xinafoic salt) were scaled up (5 g) and further analysis was performed. […] (sulfuric salt) and 5.4% w/w RT−120° C. (phosphoric salt).
Screening was performed at Almac including over 110 solvent and non-solvent based screening experiments.

[2] = Gravimetric vapor sorption analysis (GVS), water absorption 0-80% relative humidity; assay type: physicochemical; conditions: for Water absorption 0-80% RH (% w/w): gravimetric vapor sorption
[3] = listed as free base compound of Formula (Ia)

COC[C@H](C(=O)Nc1cccc2c(-c3nc(Nc4cccc(S(C)(=O)=O)c4F)ncc3F)c[nH]c12)N1CCN(C)CC1 [Xinafoate salt of compound of Formula (Ia)] [4-{(2R)-1-[(3-{5-fluoro-2-[2-fluoro-3-(methanesulfonyl)anilino]pyrimidin-4-yl}-1H-indol-7-yl)amino]-3-methoxy-1-oxopropan-2-yl}-1-methylpiperazin-1-ium; 1-hydroxynaphthalene-2-carboxylate]
Weight loss RT-120° C. (% w/w) [1]: ~0.2 % w/w | Weight loss RT-120° C. (% w/w) ([1]; listed as xinafoate salt): 0.2 % w/w | Hygroscopicity (in words) [2]: non-hygroscopic | Water absorption 0-80% RH (% w/w) [2]: ~0.2 % w/w | Water absorption 0-80% RH (% w/w) ([2]; listed as xinafoate salt): 0.2 % w/w

COC[C@H](C(=O)Nc1cccc2c(-c3nc(Nc4cccc(S(C)(=O)=O)c4F)ncc3F)c[nH]c12)N1CCN(C)CC1 [Free base compound of Formula (Ia), (R)—N-(3-(5-fluoro-2-(2-fluoro-3-(methylsulfonyl)phenylamino)pyrimidin-4-yl)-1H-indol-7-yl)-3-methoxy-2-(4-methylpiperazin-1-yl)propanamide]
Weight loss RT-120° C. (% w/w) [1]: ~5 % w/w | Weight loss RT-120° C. (% w/w) [1, 3]: 5 % w/w | Hygroscopicity (in words) [2]: slightly hygroscopic | Water absorption 0-80% RH (% w/w) [2]: ~1.7 % w/w | Water absorption 0-80% RH (% w/w) [2, 3]: 2 % w/w and 1.7 % w/w
